Data as given in article PMC4632738, “New Peptide-Conjugated Chlorin-Type Photosensitizer Targeting Neuropilin-1 for Anti-Vascular Targeted Photodynamic Therapy” (International Journal of Molecular Sciences, 2015).
Entries after “also recorded” stand apart in the source; their conditions may differ. Like-named read-outs stand apart in the source and are kept apart here. Ends that are not written are not given here. TPC = not defined here; Ahx = NCCCCCC(=O)O

Assays:
[1] = cited from earlier work
[2] = target: T1, recombinant NRP-1 protein (Homo sapiens, UniProt O14786); experiment: Competitive binding ELISA, displacement of biotinylated VEGF165
T1 sequence (O14786 22-923): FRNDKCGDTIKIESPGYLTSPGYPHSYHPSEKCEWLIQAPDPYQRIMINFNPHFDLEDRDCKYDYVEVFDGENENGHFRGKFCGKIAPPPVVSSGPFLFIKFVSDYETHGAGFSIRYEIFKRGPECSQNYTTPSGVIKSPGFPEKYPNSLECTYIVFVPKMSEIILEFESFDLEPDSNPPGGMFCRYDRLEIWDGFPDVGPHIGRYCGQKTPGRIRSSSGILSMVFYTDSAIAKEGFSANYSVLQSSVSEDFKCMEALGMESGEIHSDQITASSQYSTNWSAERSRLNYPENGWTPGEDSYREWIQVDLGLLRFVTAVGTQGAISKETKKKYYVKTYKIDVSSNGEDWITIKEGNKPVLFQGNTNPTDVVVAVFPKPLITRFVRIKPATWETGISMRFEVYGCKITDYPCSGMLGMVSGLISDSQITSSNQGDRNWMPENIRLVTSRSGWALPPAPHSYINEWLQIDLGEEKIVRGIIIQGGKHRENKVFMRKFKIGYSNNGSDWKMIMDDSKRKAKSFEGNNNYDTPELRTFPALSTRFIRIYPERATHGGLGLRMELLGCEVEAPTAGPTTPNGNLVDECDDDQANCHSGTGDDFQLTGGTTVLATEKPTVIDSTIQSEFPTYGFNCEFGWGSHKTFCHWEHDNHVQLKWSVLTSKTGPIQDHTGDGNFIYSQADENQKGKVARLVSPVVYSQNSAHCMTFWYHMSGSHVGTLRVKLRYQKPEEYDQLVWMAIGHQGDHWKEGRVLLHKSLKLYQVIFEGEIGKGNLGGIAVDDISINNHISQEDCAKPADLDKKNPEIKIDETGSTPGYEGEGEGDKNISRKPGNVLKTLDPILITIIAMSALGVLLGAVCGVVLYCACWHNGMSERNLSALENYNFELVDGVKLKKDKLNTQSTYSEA
Protocol: The molecular affinity of the different TPC–peptide conjugates for recombinant NRP-1 protein was estimated through a competitive binding test using biotinylated VEGF165 to NRP-1 receptor recognition recombinant. As biotinylated VEGF165 binding to this receptor is heparin dependent, the competitive binding tests were performed in the presence of heparin (2 µg/mL).
The conjugates were first dissolved in DMSO and subsequently diluted in methanol. Tween-20 was added in the blocking buffer to assist in the solubilization of the conjugate. The samples were prepared in ten different concentrations ranging from 3 to 960 µM.

HUVEC = system: HUVEC; design: method as in PMID 17283031; details: cited from earlier work; for Light doses 50 values: red light
[3] = Photophysical characterization (UV-Vis absorption, fluorescence and singlet oxygen quantum yields); type: physicochemical; details: ethanol, room temperature; for Molar Extinction Coefficient Soret ε415: 415 nm; for Molar Extinction Coefficient QIV ε516: 516 nm; for Molar Extinction Coefficient QIII ε543: 543 nm; for Molar Extinction Coefficient QII ε598: 598 nm; for Molar Extinction Coefficient QI ε650: 650 nm; for Fluorescence quantum yield Φf: ±0.02, reference TPP in toluene; for Singlet oxygen quantum yield Φ∆: ±0.05, reference rose Bengal in ethanol
Source text: Table 3 summarizes the molar extinction coefficient values of the six conjugates as well as their fluorescence and singlet oxygen quantum yield values.
The photophysical properties of TPC and the TPC–peptide conjugates were characterized using three different techniques; UV/visible absorption (Perkin Elmer Lambda 2 UV-Vis spectrophotometer, Courtaboeuf, France), fluorescence emission (SPEX Fluorolog-3 spectrofluorometer, Jobin Yvon, Longjumeau, Paris, France) and singlet oxygen emission. For UV-Vis measurements, the samples of TPC and the six conjugates were diluted in ethanol and their spectra were determined in the range of 300 to 800 nm. For fluorescence emission spectra, samples with an absorption at 415 nm equal to 0.200 (±0.02) were prepared. Solvent refractive index and absorption efficiencies of fluorescence quantum yields (Φf) were calculated based on a TPP solution in toluene as a fluorescence standard reference (Φf(ref) = 0.11) as described by Equation (2): (2) ϕf=ϕf(ref)×I/Iref×Aref/A×(n/nref)^2 where A and Aref correspond to the absorbance at 415 nm of the sample and TPP, respectively, while I and Iref are the areas under the fluorescence spectra between 600 and 750 nm of the sample and TPP, respectively. n and nref are the refractive indices of solvents used for the sample and TPP, respectively (n/nethanol = 1.361, nref/ntoluene = 1.496).
Singlet oxygen emission spectra were recorded on SPEX 1680 with […] double monochromator with a Xenon arc lamp as excitation source. Singlet oxygen generation was specifically detected at 1270 nm and the emission was monitored by using liquid nitrogen-cooled germanium-detector (EO-817P, North Coast Scientific, North Ridgeville, OH, USA). A solution of rose Bengal in ethanol was used as the reference, ΦΔ(ref) = 0.68 [25]. The singlet oxygen quantum yield was then determined using Equation (3): (3) ϕΔ=ϕΔ(ref)×I/Iref×Aref/A where A and Aref are the UV visible absorbance at 415 nm of the sample and rose Bengal (the reference), respectively, while I and Iref are the peak intensities of luminescence at 1270 nm of the sample and rose Bengal, respectively.

[4] = target: T1, recombinant NRP-1 protein; details: cited from earlier work
[5] = Shake flask octanol/PBS pH 7.4 distribution coefficient; type: physicochemical; details: expressed as log, mean ± S.D.
Protocol: The distribution coefficient values at pH 7.4 from the shake flask method and the retention time from HPLC analysis of TPC and the conjugates are summarized in Table 2. The TPC-spacer-peptides were analyzed by HPLC (column Altech, Apollo C18 reverse-phase (5 μm; 250 mm × 4.6 mm)) on a Shimadzu LC-10ATvp, monitored by a UV/Visible detector at 214 and 415 nm on a SPD-10A UV-Visible detector. […] The log DpH7.4 value for TPC–Ahx–ATWLPPR obtained (2.61 ± 0.2) was also consistent with data published by Tirand et al., confirming the hydrophobic characteristic of TPC and the TPC–Ahx–ATWLPPR conjugate.
Hydrophilic and hydrophobic characteristics were also evaluated using the “shake flask” method to determine the solubility of the free TPC and the conjugates. […] The distribution coefficient, DpH7.4 was then expressed as log (mean ± S.D., n = 6).

[6] = In vivo plasma concentration by HPLC after intravenous injection; details: mice, 2.8 mg/kg i.v., sampled at 1, 4 and 24 h
Protocol: The in vivo stability study was carried out with only two of the novel conjugates synthesized; TPC–PEG18–DKPPR and TPC–PEG18–TKPRR were selected because of to their interesting hydrophilicity properties. We selected TPC–Ahx–ATWLPPR conjugate as a reference based on our previous studies. Blood and tissue samples were weighed and kept at −80 °C in polypropylene tubes, until further processing. Extraction of the conjugates from the tissues required first a solubilization step, using TEM buffer (10 mM Tris, 1.66 mM EDTA, 5 mM molybdate, pH 7.4) and homogenization. […] Conjugates levels in the plasma and tissues were determined as a percentage of the injected dose per gram […] (% injected dose/g of tissue) or per milliliter plasma. […]
The in vivo stability analyses were performed by HPLC equipped with programmable software GOLD version 1.6 (Beckman Coulter, Fullerton, CA, USA), an auto sampler injector (507e, System Gold, Beckman Coulter) and a fluorescence detector (RF-10A XL, Shimadzu, Kyoto, Japan). […] Fluorescence excitation and emission wavelengths were detected at 416 and 652 nm, respectively. […] The conjugate levels in plasma and organs were determined from the peak areas and normalized based on standard calibration curves constructed earlier. The data were calculated as the mean value of three mice.

[7] = In vivo stability in plasma by MALDI-TOF MS; details: 24 h after administration, mice
Protocol: Female athymic Swiss nude/nude mice (7–9 weeks, weight range 20–25 g) were obtained from Harlan (Gannat, France). The in vivo study we conducted was based on the results obtained from the ELISA test conducted earlier. The conjugates of TPC–Ahx–ATWLPPR, TPC–PEG18–DKPPR and TPC–PEG18–TKPRR (2.8 mg/kg) were injected intravenously via the tail vein in ethanol–PEG 400–water (2:3:5, v/v/v). The mice were kept in the dark after the injection. After 1, 4 and 24 h, blood samples were collected and plasma was separated from the blood. The mice were sacrificed and tissues were carefully excised. All samples were kept in the dark at −80 °C in polypropylene tubes until further analysis.
MALDI-TOF MS analyses were carried out on a Bruker Reflex IV time-of-flight mass spectrometer (Bruker-Daltonic, Bremen, Germany) equipped with the SCOUT 384 probe ion source fitted with a nitrogen pulsed laser (337 nm, VSD-337ND model, Laser Science Inc., Boston, MA, USA). The laser output energy was 400 μJ/pulse. Positives ions were accelerated with a 200 ns extraction delay. The reflector voltage was 23 kV. […]
MALDI-TOF MS analyses were performed using 2,5-dihydroxybenzoic acid (DHB) (Sigma-Aldrich, Saint-Quentin-Fallavier, France) as the matrix. […] All samples were analyzed in duplicate.

[8] = design: method as in PMID 17283031; details: cited from earlier work

C1=Cc2nc1c(-c1ccccc1)c1ccc([nH]1)c(-c1ccccc1)c1nc(c(-c3ccccc3)c3ccc([nH]3)c2-c2ccccc2)C=C1 [TPP]
Fluorescence quantum yield of standard reference Φf(ref) ([1]; in toluene): 0.11

O=C([O-])c1c(Cl)c(Cl)c(Cl)c(Cl)c1-c1c2cc(I)c(=O)c(I)c-2oc2c(I)c([O-])c(I)cc12.[Na+].[Na+] [rose Bengal]
Singlet oxygen quantum yield of standard reference ΦΔ(ref) ([1]; in ethanol): 0.68

TKPRR [TKPRR]
IC50 [2]: 1000 nM

DKPPR [DKPPR]
IC50 [2]: 1000 nM

O=C(O)c1ccc(-c2c3nc(c(-c4ccccc4)c4ccc([nH]4)c(-c4ccccc4)c4nc(c(-c5ccccc5)c5ccc2[nH]5)CC4)C=C3)cc1 [TPC, 5-(4-carboxyphenyl)-10,15,20-triphenyl chlorin]
Light doses 50 values (HUVEC): 4.9 ± 0.64 J/cm^2
Molar Extinction Coefficient Soret ε415 [3]: 76000 L·M^−1·cm^−1
Molar Extinction Coefficient QIV ε516 [3]: 8000 L·M^−1·cm^−1
Molar Extinction Coefficient QIII ε543 [3]: 5000 L·M^−1·cm^−1
Molar Extinction Coefficient QII ε598 [3]: 4000 L·M^−1·cm^−1
Molar Extinction Coefficient QI ε650 [3]: 12000 L·M^−1·cm^−1
Fluorescence quantum yield Φf [3]: 0.18
Singlet oxygen quantum yield Φ∆ [3]: 0.47
Displacement of biotinylated VEGF165 binding onto NRP-1 protein ([2]; heparin 2 µg/mL): failed to displace; also recorded: did not show any significant binding at all
Displacement of the binding of VEGF165 [4]: failed to do so
logD ([5]; n = 6, read-out: Shake Flask Method Distribution Coefficient, D (log D pH7.4)): 2.61 ± 0.2

TKPPR
Displacement of the binding of VEGF165 to recombinant NRP-1 (ELISA) ([4]; free peptides): able to displace the binding of VEGF165

TPC–Ahx–ATWLPPR: TPC coupled via 6-aminohexanoic acid spacer to peptide ATWLPPR; group's earlier NRP-1 targeting conjugate ({TPC-Ahx}-ATWLPPR; reading uncertain; also: printed as TPC–Ahx–ATWLPPR)
Enhancement of photodynamic activity versus TPC (HUVEC): 10.4 fold
Light doses 50 values (HUVEC): 0.47 ± 0.23 J/cm^2
Time up to which conjugate is found in plasma after intravenous injection [6]: up to 24 h
MS signal of peak m/z 616 (attributed to the TPC moiety) in plasma [7]: not detected
Molar Extinction Coefficient Soret ε415 [3]: 74000 L·M^−1·cm^−1
Molar Extinction Coefficient QIV ε516 [3]: 6800 L·M^−1·cm^−1
Molar Extinction Coefficient QIII ε543 [3]: 4900 L·M^−1·cm^−1
Molar Extinction Coefficient QII ε598 [3]: 2600 L·M^−1·cm^−1
Molar Extinction Coefficient QI ε650 [3]: 12000 L·M^−1·cm^−1
Fluorescence quantum yield Φf [3]: 0.18
Singlet oxygen quantum yield Φ∆ [3]: 0.39
Displacement of the binding of VEGF165 [4]: managed to displace the binding of VEGF165
IC50 ([4]; read-out: IC50, displacement of VEGF165 binding to NRP-1): 171000 nM
Shake Flask Method Distribution Coefficient, D (log D pH7.4) ([5]; n = 6): 2.61 ± 0.2
Time for which conjugate could be detected in the plasma [8]: ≥ 48 h
